The subject of data set [1] is Phytophthora infestans. The format is in vivo. Particulars: young tomato plants sprayed, active ingredient concentration of 100 (unit not given); inoculated 1 day after treatment; evaluation 7 days after inoculation; 100% = no infection.
Data set [2] has as its system Plasmopara viticola. In words: Plasmopara test (grapevine) / protective. The format is in vivo. To be noted: young grapevine plants sprayed, active ingredient concentration 10 ppm; evaluation 6 days after inoculation; 100% = no infection. Here is the method:
Plasmopara Test (Grapevine)/Protective
To produce an appropriate active ingredient formulation, 1 part by weight of active ingredient is mixed with the specified amounts of solvent and emulsifier, and the concentrate is diluted with water to the desired concentration.
To test for protective efficacy, young plants are sprayed with the active ingredient formulation at the stated application rate. After the spray coating has dried on, the plants are inoculated with an aqueous spore suspension of Plasmopara viticola and then remain in an incubation cabin at approx. 20° C. and 100% relative air humidity for 1 day. Subsequently, the plants are placed in a greenhouse at approx. 21° C. and approx. 90% air humidity for 4 days. The plants are then moistened and placed in an incubation cabin for 1 day.
Evaluation follows 6 days after the inoculation. 0% means an efficacy which corresponds to that of the control, whereas an efficacy of 100% means that no infection is observed.
In this test, the following inventive compounds show, at an active ingredient concentration of 10 ppm, an efficacy of 70% or more: […]

In data set [3] the test system is Peronospora brassicae. In words: Peronospora test (oilseed rape seeds) / seed treatment. The data set is classed as in vivo. Particulars: dose 50 g/dt, 14-day-old plants inoculated, incubated 7 days, infected leaf area, 100% = no disease. Here is the method: Peronospora Test (Oilseed Rape Seeds)/Seed Treatment
The test was conducted under greenhouse conditions.
Oilseed rape seeds treated with an inventive active compound or a combination of inventive active compounds dissolved in N-methyl-2-pyrrolidone and diluted with water to the desired dose were sown in 6*6 cm vessels. The vessels contain 4 cm of a 1:1 mixture of steam-treated field soil and sand. The plants grew at 10° C.
14-day-old plants were inoculated with an aqueous spore suspension of Peronospora brassicae. The vessels containing the plants were incubated in a greenhouse at a temperature of 15° C. and a relative air humidity of 100% for 7 days.
The assessment of the test included the evaluation of the infected leaf area per plant. 0% means an efficiency corresponding to that of the control, while an efficiency of 100% means that no disease is observed.

Data set [4] is described as follows: physchem.

As for `O=C(Cn1nc(C(F)F)cc1C(F)F)N1CCC(c2nc(C3=NOC(COc4ccccc4)C3)cs2)CC1` (centres unmarked) [I-2, 2-[3,5-Bis(difluoromethyl)-1H-pyrazol-1-yl]-1-(4-{4-[5-(phenoxymethyl)-4,5-dihydro-1,2-oxazol-3-yl]-1,3-thiazol-2-yl}piperidin-1-yl)ethanone], the “% eff.” value in data set [1] is reported as 100%; in data set [2], 97%; in data set [3], 95%. Moreover, the chromatographic logP in data set [4] (pH 2.7) turned out to be 3.22; in data set [4] (pH 7.8), 3.25.

Take `O=C(Cn1nc(C(F)F)cc1C(F)F)N1CCC(c2nc(C3=NOC(C(F)(F)c4ccccc4)C3)cs2)CC1` (centres unmarked) [I-9, 2-[3,5-Bis(difluoromethyl)-1H-pyrazol-1-yl]-1-[4-(4-{5-[difluoro(phenyl)methyl]-4,5-dihydro-1,2-oxazol-3-yl}-1,3-thiazol-2-yl)piperidin-1-yl]ethanone]: the “% eff.” value is recorded as 100% in data set [1], 100% in data set [2] and 97% in data set [3]. In data set [4] (pH 2.7), this molecule had a chromatographic logP of 3.41.

Take `O=C(Cn1nc(C(F)F)cc1C(F)F)N1CCC(c2nc(C3=NOC(COc4c(F)cccc4F)C3)cs2)CC1` (centres unmarked) [I-43, 2-[3,5-Bis(difluoromethyl)-1H-pyrazol-1-yl]-1-[4-(4-{5-[(2,6-difluorophenoxy)methyl]-4,5-dihydro-1,2-oxazol-3-yl}-1,3-thiazol-2-yl)piperidin-1-yl]ethanone]: the “% eff.” value is recorded as 95% in data set [1], 100% in data set [2] and 98% in data set [3]. For the same molecule, the chromatographic logP came out at 3.3 in data set [4] (pH 2.7) and 3.23 in data set [4] (pH 7.8).

The values above are taken from patent US20120122928A1 (priority 2010, published 2012).
